System: Immature cryopreserved C57BL/6 and BALB/c DCs
Test: Luminex xMAP cytokine production by cryopreserved murine immature DCs primed with TLR agonist then oxPAPC or PGPC (Example 5)
Type: cell-based, C57BL/6 and BALB/c mice
Conditions: TLR agonist stimulated murine DCs; increasing concentrations of lipid (1-90 μg/ml, 48 hours)
Experimental: Immature cryopreserved C57BL/6 and BALB/c DCs (Cellero) were rapidly thawed in a water bath at 37° C. and the cells were resuspended in 10 times the volume of RPMI 1640/10% FBS/penicillin/streptomycin/L-glutamine/2-ME. Cells were washed twice using complete media. Thawed cells were plated in triplicate at 2×10^5 cells/well in a 96-well flat bottom TC plate. DCs were primed with 1 μg/ml of LPS (Sigma Aldrich), 1:400 dilution of hBCG (Organon Teknika/Cognate), 1 μg/ml of R848 (Sigma Aldrich), 1 μg/ml Pam2 (Invivogen), 1 μg/ml Pam3 (Invivogen), and 25 μg/ml of Poly I:C HMW (“high molecular weight”; Invivogen) for 3 hrs. Titrated concentrations of oxPAPC (Invivogen) or PGPC (Cayman)—at 1 μg/ml, 3 μg/ml, 10 μg/ml, 30 μg/ml, and 90 μg/ml—were added to appropriate samples and cultured for an additional 48 hours. Cytokine production in 100 μl of culture medium was assessed by a mouse cytokine and chemokine panel, across 26 protein targets (IFNγ; IL12 p70; IL13; IL1β; IL2; IL4; IL5; IL6; TNFα; GM-CSF; IL18; IL10; IL17A; IL22; IL23; IL27; IL9; GROα; IP10; MCP1; MCP3; MIP1α; MIP1β; MIP2; RANTES; and Eotaxin), using Luminex xMAP® multiplex technology using the manufacturer's. The xMAP system is an immunoassay system that can simultaneously detect many targets in a single sample.

## CCCCCCCCCCCCCCCC(=O)OCC(COP(=O)([O-])OCC[N+](C)(C)C)OC(=O)CCCC(=O)O (stereo not shown) [PGPC, 1-palmitoyl-2-glutaryl phosphatidylcholine]
  production of IL-1β: upregulated production

Reference: patent US20240122975A1, “IN VITRO METHODS AND COMPOSITIONS FOR ENHANCING THE ACTIVATION OF DENDRITIC CELLS AND T CELLS, AND FOR INDUCING A TH-1 IMMUNE RESPONSE” (Northwest Biotherapeutics, Inc., priority 2019, published 2024)
